Reference: patent US20230066011A1, “PYRROLOPYRIMIDINE DERIVATIVE, AND PHARMACEUTICAL COMPOSITION FOR PREVENTING OR TREATING PROTEIN KINASE-RELATED DISEASE COMPRISING SAME AS ACTIVE INGREDIENT” (VORONOI CO., LTD., priority 2019, published 2023)

Tests used:
human GST-DYRK1A = target: T1, human GST-DYRK1A (Homo sapiens, UniProt Q13627); test: GST-DYRK1A enzyme inhibition, ADP-Glo kinase assay; assay type: biochemical; conditions: ATP 10 μM, GST-DYRK1A full length, read-out: DYRK1 IC50
T1 construct: purified human GST-DYRK1A (full length, Thermo Scientifics) enzyme; purchased Thermo Scientifics
How it was run: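 Full-length human GST-DYRK1A (10 ng) with 10 μM ATP and specific substrate in 40 mM Tris-HCl pH 7.4, 20 mM MgCl2, 0.5 mg/mL BSA, 50 μM DTT, 1 h at 25 °C. ADP formation read by ADP-Glo luminescence relative to solvent control; IC50 from three data sets.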

human GST-CLK1 = target: T2, human GST-CLK1 (Homo sapiens, UniProt P49759); test: GST-CLK1 enzyme inhibition, ADP-Glo kinase assay; assay type: biochemical; conditions: ATP 10 μM, GST-CLK1 129-end
T2 construct: purified human GST-CLK1 (129-end, SignalChem) enzyme; purchased SignalChem
How it was run: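 Human GST-CLK1 (129-end, 3 ng) reacted with substrate and 10 μM ATP for 1 h at 25° C in 40 mM Tris-HCl pH 7.4, 20 mM MgCl2, 0.5 mg/mL BSA, 50 μM DTT. ADP-Glo luminescence was normalised to solvent control; IC50 (nM) from 3 data sets.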

MDA-MB-231 cell line = test: Inhibition of proliferation of MDA-MB-231 cancer cells (Cell Titer-Glo); assay type: cell-based; conditions: Homo sapiens, 72 hours
How it was run: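 GI50 values derive from Cell Titer-Glo luminescence, measured after a 10-minute room-temperature incubation with the reagent. Before that, cells plated at 2,000 per well in DMEM or RPMI medium were treated for 72 h with compound at 11 final concentrations spanning 10 μM down to 0.000169 μM in threefold steps.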

SHP-77 = test: Inhibition of proliferation of SHP-77 cancer cells (Cell Titer-Glo); assay type: cell-based; conditions: Homo sapiens, SHP77, 72 hours
Method: To evaluate an inhibitory effect on the proliferation of cancer cells, each of an MDA-MB-231 cell line (Korean Cell Line Bank #30026) and an MDA-MB-468 cell line as triple-negative breast cancer cell lines, and SHP-77 (ATCC #CRL-2195) as a small-cell lung cancer cell line was cultured in DMEM (HyClone #SH30243) or an RPMI medium (HyClone #SH3027.01) to analyze a cell growth rate. More specifically, a cell line was plated on a 96-well flat bottom plate (Corning #3903) at a density of 2,000 cells/100 μL per well, and then treated with 11 concentrations of the Example compound, a solution of which was diluted 3-fold so that a final concentration of the compound was 10.000000, 3.333333, 1.111111, 0.370370, 0.123457, 0.041152, 0.013717, 0.004572, 0.001524, 0.000508, and 0.000169 μM. After 72 hours, each of the culture media was treated with 100 μL of Cell Titer-Glo (Promega G7573), and then cultured at room temperature for 10 minutes. Then, a degree of luminescence was measured using a microplate reader. A GI50 value was calculated from the measured degree of luminescence using Prism (Version 8.2 GraphPad) software.

LRRK2 = LRRK2 (Homo sapiens, UniProt Q5S007); test: LRRK2 enzyme inhibition, ADP-Glo kinase assay; assay type: biochemical; design: purchased Invitrogen PR8604B; conditions: ATP 10 μM
How it was run: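 Purified human LRRK2 (25 ng) with 10 μM ATP and 0.2 μg substrate in 40 mM Tris-HCl pH 7.4, 20 mM MgCl2, 0.5 mg/mL BSA, 50 μM DTT, 2 h at 25° C. ADP-Glo luminescence; 12-point compound series from 50 μM final; IC50 relative to solvent control.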

LRRK2 (G2019S) = LRRK2 (G2019S) (Homo sapiens, UniProt Q5S007, G2019S); test: LRRK2 G2019S enzyme inhibition, ADP-Glo kinase assay; assay type: biochemical; design: purchased SignalChem L10-12GG; conditions: ATP 25 μM
How it was run: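 Purified human LRRK2 G2019S (16 ng) with 25 μM ATP and 0.2 μg substrate, 2 h at 25° C. in Tris-HCl pH 7.4, MgCl2, BSA, DTT buffer; compounds at 12 final concentrations, 50 μM down to 0.000001024 μM. ADP-Glo luminescence versus solvent control gave IC50.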

T2 sequence (P49759 129-484 limits assumed): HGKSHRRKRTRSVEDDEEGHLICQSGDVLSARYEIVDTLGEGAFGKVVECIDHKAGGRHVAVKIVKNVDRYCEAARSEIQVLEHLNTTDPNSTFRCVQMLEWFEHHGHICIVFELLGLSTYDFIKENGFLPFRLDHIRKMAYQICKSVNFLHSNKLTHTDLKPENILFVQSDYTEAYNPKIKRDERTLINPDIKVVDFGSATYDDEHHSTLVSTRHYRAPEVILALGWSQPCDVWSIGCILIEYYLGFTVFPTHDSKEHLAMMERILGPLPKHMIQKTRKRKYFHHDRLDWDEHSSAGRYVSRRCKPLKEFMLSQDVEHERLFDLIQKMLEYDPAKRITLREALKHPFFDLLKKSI
Chain of LRRK2 (Q5S007 970-2527 limits assumed): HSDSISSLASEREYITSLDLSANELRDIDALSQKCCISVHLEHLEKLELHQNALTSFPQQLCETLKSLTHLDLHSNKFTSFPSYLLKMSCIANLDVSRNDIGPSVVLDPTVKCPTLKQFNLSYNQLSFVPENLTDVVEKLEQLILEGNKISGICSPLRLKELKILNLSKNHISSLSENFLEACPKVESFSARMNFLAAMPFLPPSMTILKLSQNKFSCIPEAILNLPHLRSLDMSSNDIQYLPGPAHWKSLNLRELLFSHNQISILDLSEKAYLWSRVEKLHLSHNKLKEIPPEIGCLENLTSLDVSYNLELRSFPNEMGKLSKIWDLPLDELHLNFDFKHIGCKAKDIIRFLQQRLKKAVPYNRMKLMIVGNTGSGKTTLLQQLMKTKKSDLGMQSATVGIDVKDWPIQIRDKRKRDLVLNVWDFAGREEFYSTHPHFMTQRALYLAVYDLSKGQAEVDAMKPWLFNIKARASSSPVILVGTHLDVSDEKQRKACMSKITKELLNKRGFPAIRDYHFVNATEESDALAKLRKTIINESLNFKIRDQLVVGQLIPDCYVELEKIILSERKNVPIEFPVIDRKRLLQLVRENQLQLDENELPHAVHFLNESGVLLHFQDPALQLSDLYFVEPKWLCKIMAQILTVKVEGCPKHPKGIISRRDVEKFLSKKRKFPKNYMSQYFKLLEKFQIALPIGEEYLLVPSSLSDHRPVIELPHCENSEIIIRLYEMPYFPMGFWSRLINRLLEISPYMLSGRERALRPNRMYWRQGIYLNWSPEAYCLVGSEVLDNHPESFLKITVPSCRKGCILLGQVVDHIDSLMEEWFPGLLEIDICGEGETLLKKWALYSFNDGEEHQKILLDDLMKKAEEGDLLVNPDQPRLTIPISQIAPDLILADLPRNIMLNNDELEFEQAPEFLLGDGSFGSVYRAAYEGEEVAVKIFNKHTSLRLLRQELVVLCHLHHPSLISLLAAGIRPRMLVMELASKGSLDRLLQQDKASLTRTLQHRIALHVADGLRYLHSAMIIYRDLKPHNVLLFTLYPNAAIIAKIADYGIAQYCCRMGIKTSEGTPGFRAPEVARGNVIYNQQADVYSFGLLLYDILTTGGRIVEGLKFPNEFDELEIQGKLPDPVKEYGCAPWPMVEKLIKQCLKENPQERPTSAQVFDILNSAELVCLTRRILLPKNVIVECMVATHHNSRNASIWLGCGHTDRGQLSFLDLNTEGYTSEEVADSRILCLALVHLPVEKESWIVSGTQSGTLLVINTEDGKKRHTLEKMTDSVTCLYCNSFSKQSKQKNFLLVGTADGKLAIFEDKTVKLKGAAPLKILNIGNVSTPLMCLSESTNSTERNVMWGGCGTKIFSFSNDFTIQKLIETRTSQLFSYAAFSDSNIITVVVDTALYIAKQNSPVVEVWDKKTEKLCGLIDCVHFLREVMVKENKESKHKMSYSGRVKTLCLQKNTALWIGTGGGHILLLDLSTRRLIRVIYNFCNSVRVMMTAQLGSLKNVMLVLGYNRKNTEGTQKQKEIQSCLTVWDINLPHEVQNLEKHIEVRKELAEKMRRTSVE
Chain of LRRK2 (G2019S) (Q5S007 970-2527 G2019S limits assumed): as the sequence (Q5S007 970-2527 limits assumed) above, with G1050S counted along it

SMILES	IC50 (human GST-DYRK1A) [nM]	IC50 (human GST-CLK1) [nM]	GI50 (MDA-MB-231 cell line) [nM]	GI50 (SHP-77) [nM]	IC50 (LRRK2) [nM]	IC50 (LRRK2 (G2019S)) [nM]
CNc1nc(Nc2ccc(S(=O)(=O)N3CCOCC3)cc2OC)nc2[nH]cc(C#N)c12 [Example 62, 2-((2-methoxy-4-(morpholinosulfonyl)phenyl)amino)-4-(methylamino)-7H-pyrrolo[2,3-d]pyrimidine-5-carbonitrile]	301 to 1000	301 to 1000	51 to 100	51 to 100	< 100	< 100
COc1cc(S(=O)(=O)N2CCC(N3CCOCC3)CC2)ccc1Nc1nc(NC2CCCC2)c2c(C(F)(F)F)c[nH]c2n1 [Example 187, N^4-cyclopentyl-N^2-(2-methoxy-4-((4-morpholinopiperidin-1-yl)sulfonyl)phenyl)-5-(trifluoromethyl)-7H-pyrrolo[2,3-d]pyrimidine-2,4-diamine]	301 to 1000	301 to 1000	301 to 1000	301 to 1000	< 100	–
COCC(C)(C)Nc1nc(Nc2ccc(S(=O)(=O)N3CCOCC3)cc2OC)nc2[nH]cc(C#N)c12 [Example 78, 4-((1-methoxy-2-methylpropan-2-yl)amino)-2-((2-methoxy-4-(morpholinosulfonyl)phenyl)amino)-7H-pyrrolo[2,3-d]pyrimidine-5-carbonitrile]	301 to 1000	301 to 1000	< 50	< 50	< 100	–
COc1cc(S(=O)(=O)N2CCC(N3CCOCC3)CC2)ccc1Nc1nc(NC2CCC2)c2c(C(F)(F)F)c[nH]c2n1 [Example 183, N^4-cyclobutyl-N^2-(2-methoxy-4-((4-morpholinopiperidin-1-yl)sulfonyl)phenyl)-5-(trifluoromethyl)-7H-pyrrolo[2,3-d]pyrimidine-2,4-diamine]	301 to 1000	301 to 1000	301 to 1000	301 to 1000	< 100	101 to 300
CCNc1nc(Nc2ccc(S(=O)(=O)N3CCOCC3)cc2OC)nc2[nH]cc(C(F)(F)F)c12 [Example 191, N^4-ethyl-N^2-(2-methoxy-4-(morpholinosulfonyl)phenyl)-5-(trifluoromethyl)-7H-pyrrolo[2,3-d]pyrimidine-2,4-diamine]	301 to 1000	301 to 1000	301 to 1000	101 to 300	101 to 300	301 to 1000
COc1cc(S(=O)(=O)N2CCOCC2)ccc1Nc1nc(NC(C)C)c2c(C(F)(F)F)c[nH]c2n1 [Example 164, N^4-isopropyl-N^2-(2-methoxy-4-(morpholinosulfonyl)phenyl)-5-(trifluoromethyl)-7H-pyrrolo[2,3-d]pyrimidine-2,4-diamine]	301 to 1000	301 to 1000	301 to 1000	51 to 100	< 100	301 to 1000
COCC(C)(C)Nc1nc(Nc2ccc(S(=O)(=O)N3CCC(N4CCOCC4)CC3)cc2OC)nc2[nH]cc(C#N)c12 [Example 93, 4-((1-methoxy-2-methylpropan-2-yl)amino)-2-((2-methoxy-4-((4-morpholinopiperidin-1-yl)sulfonyl)phenyl)amino)-7H-pyrrolo[2,3-d]pyrimidine-5-carbonitrile]	301 to 1000	101 to 300	< 50	< 50	< 100	–
CCCNc1nc(Nc2ccc(S(=O)(=O)N3CCOCC3)cc2OC)nc2[nH]cc(C#N)c12 [Example 64, 2-((2-methoxy-4-(morpholinosulfonyl)phenyl)amino)-4-(propylamino)-7H-pyrrolo[2,3-d]pyrimidine-5-carbonitrile]	301 to 1000	301 to 1000	< 50	< 50	< 100	< 100
CCCCNc1nc(Nc2ccc(S(=O)(=O)N3CCC(N4CCOCC4)CC3)cc2OC)nc2[nH]cc(C(F)(F)F)c12 [Example 202, N^4-butyl-N^2-(2-methoxy-4-((4-morpholinopiperidin-1-yl)sulfonyl)phenyl)-5-(trifluoromethyl)-7H-pyrrolo[2,3-d]pyrimidine-2,4-diamine]	301 to 1000	301 to 1000	301 to 1000	301 to 1000	< 100	101 to 300
COc1cc(S(=O)(=O)N2CCC(N3CCOCC3)CC2)ccc1Nc1nc(NCC2CC2)c2c(C#N)c[nH]c2n1 [Example 92, 4-((cyclopropylmethyl)amino)-2-((2-methoxy-4-((4-morpholinopiperidin-1-yl)sulfonyl)phenyl)amino)-7H-pyrrolo[2,3-d]pyrimidine-5-carbonitrile]	301 to 1000	301 to 1000	< 50	< 50	< 100	–
COc1cc(S(=O)(=O)N2CCC(N3CCOCC3)CC2)ccc1Nc1nc(NC2CCC2)c2c(C#N)c[nH]c2n1 [Example 89, 4-(cyclobutylamino)-2-((2-methoxy-4-((4-morpholinopiperidin-1-yl)sulfonyl)phenyl)amino)-7H-pyrrolo[2,3-d]pyrimidine-5-carbonitrile]	301 to 1000	101 to 300	< 50	51 to 100	< 100	< 100
COc1cc(S(=O)(=O)N2CCOCC2)ccc1Nc1nc(NCC2CC2)c2c(C#N)c[nH]c2n1 [Example 77, 4-((cyclopropylmethyl)amino)-2-((2-methoxy-4-(morpholinosulfonyl)phenyl)amino)-7H-pyrrolo[2,3-d]pyrimidine-5-carbonitrile]	301 to 1000	301 to 1000	< 50	< 50	< 100	< 100
COc1cc(S(=O)(=O)N2CCOCC2)ccc1Nc1nc(NC2CCCC2)c2c(C(F)(F)F)c[nH]c2n1 [Example 186, N^4-cyclopentyl-N^2-(2-methoxy-4-(morpholinosulfonyl)phenyl)-5-(trifluoromethyl)-7H-pyrrolo[2,3-d]pyrimidine-2,4-diamine]	301 to 1000	301 to 1000	301 to 1000	301 to 1000	101 to 300	–
COc1cc(S(=O)(=O)N2CCC(N3CCOCC3)CC2)ccc1Nc1nc(NCC2CCC2)c2c(C(F)(F)F)c[nH]c2n1 [Example 197, N^4-(cyclobutylmethyl)-N^2-(2-methoxy-4-((4-morpholinopiperidin-1-yl)sulfonyl)phenyl)-5-(trifluoromethyl)-7H-pyrrolo[2,3-d]pyrimidine-2,4-diamine]	301 to 1000	301 to 1000	301 to 1000	301 to 1000	< 100	101 to 300
CCNc1nc(Nc2ccc(S(=O)(=O)N3CCOCC3)cc2OC)nc2[nH]cc(C#N)c12 [Example 63, 4-(ethylamino)-2-((2-methoxy-4-(morpholinosulfonyl)phenyl)amino)-7H-pyrrolo[2,3-d]pyrimidine-5-carbonitrile]	301 to 1000	301 to 1000	301 to 1000	301 to 1000	< 100	< 100
COc1cc(S(=O)(=O)N2CCOCC2)ccc1Nc1nc(NC2CCC2)c2c(C#N)c[nH]c2n1 [Example 71, 4-(cyclobutylamino)-2-((2-methoxy-4-(morpholinosulfonyl)phenyl)amino)-7H-pyrrolo[2,3-d]pyrimidine-5-carbonitrile]	301 to 1000	301 to 1000	101 to 300	51 to 100	< 100	< 100
